Source: US10117430B2, “Malononitrile compounds for controlling animal pests” (BASF SE, priority 2012, dated 2018)

Legend:
Assay type in all cases: in vivo
[1] = system: Cowpea Aphid (Aphis craccivora); assay: B.1 Cowpea aphid spray test on potted cowpea plants; settings: in comparison with untreated controls, population reduction assessed after 24, 72 and 120 hours
Protocol: B.1 Cowpea Aphid (Aphis craccivora)
The active compounds were formulated in 50:50 (v/v) acetone:water. The test solution was prepared at the day of use. Potted cowpea plants colonized with approximately 100-150 aphids of various stages were sprayed after the pest population has been recorded. Population reduction was assessed after 24, 72, and 120 hours.

[2] = system: Yellow Fever Mosquito (Aedes aegypti); assay: whole plant or invertebrate; settings: 48 h, in comparison with untreated controls, larval mortality after 2 days
Protocol: B.12 Yellow Fever Mosquito (Aedes aegypti)
For evaluating control of yellow fever mosquito (Aedes aegypti) the test unit consisted of 96-well-microtiter plates containing 200 μl of tap water per well and 5-15 freshly hatched A. aegypti larvae. The compounds or mixtures were formulated using a solution containing 75% water and 25% DMSO. Different concentrations of formulated compounds or mixtures were sprayed onto the insect diet at 2.5 μl, using a custom built micro atomizer, at two replications. After application, microtiter plates were incubated at 28±1° C., 80±5% relative humidity for 2 days. Larval mortality was then visually assessed.

[3] = system: Green Peach Aphid (Myzus persicae); assay: B.3 Green peach aphid systemic test, artificial diet under membrane; settings: 72 h, concentration of the test solution 2500 mg/L, 3 days
Excerpt: B.3 Green Peach Aphid (Myzus persicae)
For evaluating control of green peach aphid (Myzus persicae) through systemic means the test unit consisted of 96-well-microtiter plates containing liquid artificial diet under an artificial membrane. The compounds were formulated using a solution containing 75% v/v water and 25% v/v DMSO. Different concentrations of formulated compounds were pipetted into the aphid diet, using a custom built pipetter, at two replications. After application, 5-8 adult aphids were placed on the artificial membrane inside the microtiter plate wells. The aphids were then allowed to suck on the treated aphid diet and incubated at about 23±1° C. and about 50±5% relative humidity for 3 days. Aphid mortality and fecundity was then visually assessed.

[4] = system: Vetch Aphid (Megoura viciae); assay: B.7 Vetch aphid test on broad bean leaf disks; settings: foliar, 120 h, in comparison with untreated controls, 5 days
Protocol: B.7 Vetch Aphid (Megoura viciae)
For evaluating control of vetch aphid (Megoura viciae) through contact or systemic means the test unit consisted of 24-well-microtiter plates containing broad bean leaf disks. The compounds were formulated using a solution containing 75% v/v water and 25% v/v DMSO. Different concentrations of formulated compounds were sprayed onto the leaf disks at 2.5 μl, using a custom built micro atomizer, at two replications. After application, the leaf disks were air-dried and 5-8 adult aphids placed on the leaf disks inside the microtiter plate wells. The aphids were then allowed to suck on the treated leaf disks and incubated at about 23±1° C. and about 50±5% relative humidity for 5 days. Aphid mortality and fecundity was then visually assessed.

[5] = system: Green Soldier Stink Bug (Nezara viridula); assay: B.15 Green soldier stink bug test on sprayed soybean pods; settings: 120 h, in comparison with untreated controls, after 5 days
Protocol: B.15 Green Soldier Stink Bug (Nezara viridula)
The active compound is dissolved at the desired concentration in a mixture of 1:1 (vol:vol) distilled water:aceteone. Surfactant (Kinetic HV) is added at a rate of 0.01% (vol/vol). The test solution is prepared at the day of use. Soybean pods were placed in microwavable plastic cups lined with moist filter paper and inoculated with ten 3rd instar N. viridula. Using a hand atomizer, an approximately 2 ml solution is sprayed into each cup. Treated cups were kept at about 28-29° C. and relative humidity of about 50-60%. Percent mortality was recorded after 5 days.

[6] = system: Boll Weevil (Anthonomus grandis); assay: B.9 Boll weevil microtiter diet test, egg and larval mortality; settings: 120 h, in comparison with untreated controls, egg and larval mortality after 5 days
Protocol: B.9 Boll Weevil (Anthonomus grandis)
For evaluating control of boll weevil (Anthonomus grandis) the test unit consisted of 24-well-microtiter plates containing an insect diet and 20-30 A. grandis eggs. The compounds were formulated using a solution containing 75% v/v water and 25% v/v DMSO. Different concentrations of formulated compounds were sprayed onto the insect diet at 20 μl, using a custom built micro atomizer, at two replications. After application, microtiter plates were incubated at about 23±1° C. and about 50±5% relative humidity for 5 days. Egg and larval mortality was then visually assessed.

[7] = system: Orchid Thrips (Dichromothrips corbetti); assay: B.4 Orchid thrips floral-immersion test; settings: 96 h, in comparison with untreated controls, after 4 days
Protocol: B.4 Orchid Thrips (Dichromothrips Corbetti)
Dichromothrips corbetti adults used for bioassay are obtained from a colony maintained continuously under laboratory conditions. For testing purposes, the test compound is diluted to a concentration of 300 ppm (wt compound: vol diluent) in a 1:1 mixture of acetone:water (vol:vol), plus 0.01% vol/vol Kinetic® surfactant. Thrips potency of each compound is evaluated by using a floral-immersion technique. Plastic petri dishes are used as test arenas. All petals of individual, intact orchid flowers are dipped into treatment solution and allowed to dry. Treated flowers are placed into individual petri dishes along with 10-15 adult thrips. The petri dishes are then covered with lids. All test arenas are held under continuous light and a temperature of about 28° C. for duration of the assay. After 4 days, the numbers of live thrips are counted on each flower, and along inner walls of each petri dish. The level of thrips mortality is extrapolated from pre-treatment thrips numbers.

[8] = system: Rice brown plant hopper (Nilaparvata lugens); assay: B.11 Rice brown plant hopper test on sprayed rice seedlings; settings: in comparison with untreated controls, after 72 hours
Protocol: B.11 Rice brown plant hopper (Nilaparvata lugens)
Rice seedlings were cleaned and washed 24 hours before spraying. The active compounds were formulated in 50:50 acetone:water (vol:vol) and 0.1% vol/vol surfactant (EL 620) was added. Potted rice seedlings were sprayed with 5 ml test solution, air dried, placed in cages and inoculated with 10 adults. Treated rice plants were kept at about 28-29° C. and relative humidity of about 50-60%. Percent mortality was recorded after 72 hours.

[9] = system: Silverleaf Whitefly (Bemisia argentifolii); assay: B.5 Silverleaf whitefly test on sprayed cotton plants; settings: 72 h, in comparison with untreated controls, 3 days after treatment
Protocol: B.5 Silverleaf Whitefly (Bemisia argentifolii)
The active compounds were formulated in cyclohexanone as a 10,000 ppm solution supplied in 1.3 ml ABgene® tubes. These tubes were inserted into an automated electrostatic sprayer equipped with an atomizing nozzle and they served as stock solutions for which lower dilutions were made in 50% acetone:50% water (v/v). A nonionic surfactant (Kinetic®) was included in the solution at a volume of 0.01% (v/v). Cotton plants at the cotyledon stage (one plant per pot) were sprayed by an automated electrostatic plant sprayer equipped with an atomizing spray nozzle. The plants were dried in the sprayer fume hood and then removed from the sprayer. Each pot was placed into a plastic cup and 10 to 12 whitefly adults (approximately 3-5 days old) were introduced. The insects were collected using an aspirator and 0.6 cm, nontoxic Tygon® tubing (R-3603) connected to a barrier pipette tip. The tip, containing the collected insects, was then gently inserted into the soil containing the treated plant, allowing insects to crawl out of the tip to reach the foliage for feeding. Cups were covered with a reusable screened lid (150-micron mesh polyester screen PeCap from Tetko, Inc.). Test plants were maintained in a growth room at 25° C. and 20-40% relative humidity for 3 days, avoiding direct exposure to fluorescent light (24 hour photoperiod) to prevent trapping of heat inside the cup. Mortality was assessed 3 days after treatment, compared to untreated control plants.

[10] = system: Mediterranean Fruitfly (Ceratitis capitata); assay: B.2 Mediterranean fruitfly microtiter diet test, egg and larval mortality; settings: 120 h, in comparison with untreated controls, egg and larval mortality after 5 days
Protocol: B.2 Mediterranean Fruitfly (Ceratitis capitata)
For evaluating control of Mediterranean fruitfly (Ceratitis capitata) the test unit consisted of microtiter plates containing an insect diet and 50-80 C. capitata eggs. The compounds were formulated using a solution containing 75% v/v water and 25% v/v DMSO. Different concentrations of formulated compounds were sprayed onto the insect diet at 5 μl, using a custom built micro atomizer, at two replications. After application, microtiter plates were incubated at about 28±1° C. and about 80±5% relative humidity for 5 days. Egg and larval mortality was then visually assessed.

Cc1cc(C)cc(C(C#N)(C#N)Cc2ccc(C(F)(F)F)cn2)c1 [II-47]
≥ 75%: mortality at 500 ppm [1] | mortality at 2500 ppm [2]

COc1cccc(C(C#N)(C#N)Cc2ccc(C(F)(F)F)cn2)c1 [II-39]
≥ 75%: mortality at 2500 µg/mL [3]

Cc1cccc(C(C#N)(C#N)Cc2ccc(C(F)(F)F)cn2)c1 [II-37]
≥ 75%: mortality at 2500 ppm [2]

N#CC(C#N)(Cc1c(Cl)cncc1Cl)c1cc(F)c(F)c(F)c1 [II-66]
≥ 75%: mortality at 2500 ppm [4] | mortality at 2500 ppm [2]

Cc1cccc(CC(C#N)(C#N)c2cc(F)c(F)c(F)c2)n1 [II-65]
≥ 75%: mortality at 500 ppm [5] | mortality at 2500 ppm [6] | mortality at 500 ppm [7] | mortality at 300 ppm [8] | mortality at 2500 ppm [2]

N#CC(C#N)(Cc1ccc(C(F)(F)F)cn1)c1cccc(F)c1F [II-49]
≥ 75%: mortality at 500 ppm [5] | mortality at 500 ppm [7] | mortality at 300 ppm [8]

N#CC(C#N)(Cc1ccc(C(F)(F)F)nn1)c1ccccc1 [II-13]
≥ 75%: mortality at 500 ppm [9] | mortality at 2500 ppm [6] | mortality at 2500 µg/mL [3] | mortality at 2500 ppm [2]

N#CC(C#N)(Cc1cnc(C(F)(F)F)cn1)c1ccc(F)cc1 [II-27]
≥ 75%: mortality at 500 ppm [9] | mortality at 2500 ppm [4] | mortality at 2500 ppm [10] | mortality at 2500 ppm [6] | mortality at 500 ppm [7] | mortality at 300 ppm [8] | mortality at 2500 ppm [2]

N#CC(C#N)(Cc1ccc(C(F)(F)F)cn1)c1cc(C(F)(F)F)cc(C(F)(F)F)c1 [II-60]
≥ 75%: mortality at 2500 ppm [2]

N#CC(C#N)(Cc1ncc(C(F)(F)F)cn1)c1cccc(F)c1 [II-18]
≥ 75%: mortality at 500 ppm [9] | mortality at 2500 ppm [4] | mortality at 2500 ppm [6] | mortality at 2500 µg/mL [3] | mortality at 500 ppm [7] | mortality at 2500 ppm [2]

N#CC(C#N)(Cc1ccc(C(F)(F)F)nc1)c1ccc(Cl)cc1 [II-2]
≥ 75%: mortality at 500 ppm [9] | mortality at 2500 ppm [6] | mortality at 500 ppm [1] | mortality at 500 ppm [7] | mortality at 2500 ppm [2]

C#Cc1ccc(C(C#N)(C#N)Cc2ccc(C(F)(F)F)nc2)cc1 [II-1]
≥ 75%: mortality at 500 ppm [9] | mortality at 2500 ppm [6] | mortality at 300 ppm [8]

N#CC(C#N)(Cc1ccc(C(F)(F)F)nn1)c1cccc(F)c1 [II-15]
≥ 75%: mortality at 500 ppm [9] | mortality at 2500 ppm [6] | mortality at 500 ppm [1] | mortality at 2500 µg/mL [3] | mortality at 500 ppm [7] | mortality at 2500 ppm [2]

N#CC(C#N)(Cc1ccc(C(F)(F)F)nc1)c1ccccc1F [II-24]
≥ 75%: mortality at 500 ppm [9] | mortality at 2500 ppm [6] | mortality at 500 ppm [7] | mortality at 300 ppm [8] | mortality at 2500 ppm [2]

N#CC(C#N)(Cc1ccc(F)cn1)c1ccc(F)cc1 [II-12]
≥ 75%: mortality at 500 ppm [9]

N#CC(C#N)(Cc1ccc(C(F)(F)F)cn1)c1ccccc1F [II-36]
≥ 75%: mortality at 500 ppm [9] | mortality at 2500 ppm [6] | mortality at 300 ppm [8] | mortality at 2500 ppm [2]

N#CC(C#N)(Cc1ccc(Br)cn1)c1ccc(F)cc1 [II-10, 2-[(5-bromo-2-pyridyl)methyl]-2-(4-fluorophenyl)propanedinitrile]
≥ 75%: mortality at 2500 ppm [6] | mortality at 500 ppm [7] | mortality at 300 ppm [8]

N#CC(C#N)(Cc1ccc(C(F)(F)F)nc1)c1cc(F)cc(C(F)(F)F)c1 [II-46]
≥ 75%: mortality at 500 ppm [7] | mortality at 2500 ppm [2]

N#CC(C#N)(Cc1ccc(C(F)(F)F)nc1)c1cc(C(F)(F)F)cc(C(F)(F)F)c1 [II-54]
≥ 75%: mortality at 2500 ppm [2]

Cc1cccc(C(C#N)(C#N)Cc2ccc(C(F)(F)F)nc2)c1 [II-22]
≥ 75%: mortality at 300 ppm [8]

N#CC(C#N)(Cc1ccccn1)c1ccccc1 [II-29]
≥ 75%: mortality at 2500 ppm [2]

N#CC(C#N)(Cc1cnc(C(F)(F)F)nc1)c1ccc(F)cc1 [II-23]
≥ 75%: mortality at 500 ppm [9] | mortality at 2500 ppm [4] | mortality at 2500 ppm [10] | mortality at 2500 ppm [6] | mortality at 500 ppm [1] | mortality at 2500 µg/mL [3] | mortality at 500 ppm [7] | mortality at 300 ppm [8] | mortality at 2500 ppm [2]
